From the supplement of paper PMC9337992
± gives the standard deviation of the averaged measurements.

Legend:
Test in all cases: cell confluence relative to DMSO control; higher = less growth inhibition
Details in all cases: 5 d
[1] = test system: BT20
Method: (§1)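 MS023 dose-response (9 concentrations, 40 nM to 10 uM) across TNBC cell lines. Cell confluence was monitored by IncuCyte live-cell imaging for 5 d and normalised to DMSO; n = 4 replicates.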

[2] = test system: BT549
Method: as §1

[3] = test system: CAL120
Method: as §1

[4] = test system: CAL85-1
Method: as §1

[5] = test system: HCC1143
Method: as §1

[6] = test system: HCC1395
Method: as §1

[7] = test system: HCC1806
Method: as §1

[8] = test system: HCC3153
Method: as §1

[9] = test system: HCC38
Method: as §1

[10] = test system: HCC70
Method: as §1

[11] = test system: Hs578T
Method: as §1

[12] = test system: MDA-MB-157
Method: as §1

[13] = test system: MDA-MB436
Method: as §1

[14] = test system: MDA-MB468
Method: as §1

[15] = test system: MDAMB231
Method: as §1

[16] = test system: MX1
Method: as §1

[17] = test system: SUM149
Method: as §1

[18] = test system: SUM159
Method: as §1

CC(C)Oc1ccc(-c2c[nH]cc2CN(C)CCN)cc1 [MS023]
cell confluence [%]
Details | log10 MS023 concentration (log10 uM): 0.09691 | log10 MS023 concentration (log10 uM): 0.39794 | log10 MS023 concentration (log10 uM): 0.69897 | log10 MS023 concentration (log10 uM): 1 | log10 MS023 concentration (log10 uM): -0.20412 | log10 MS023 concentration (log10 uM): -0.50515 | log10 MS023 concentration (log10 uM): -0.80618 | log10 MS023 concentration (log10 uM): -1.10721 | log10 MS023 concentration (log10 uM): -1.40824
[1] | 102 ± 5 | 98.2 ± 8.7 | 99.8 ± 4.7 | 91.7 ± 13 | 100 ± 5.7 | 102 ± 6 | 101 ± 5.1 | 93.8 ± 11 | 96.5 ± 5.5
[2] | 91.8 ± 8.3 | 85.7 ± 7.7 | 61.5 ± 7.5 | 53.4 ± 7.6 | 99.5 ± 3 | 97.3 ± 8 | 103 ± 3.4 | 109 ± 8.2 | 98.8 ± 4.6
[3] | 100.06 ± 0.081 | 100.1 ± 0.14 | 100 ± 0.21 | 99.59 ± 0.47 | 100.2 ± 0.23 | 99.99 ± 0.22 | 100.2 ± 0.18 | 100 ± 0.26 | 100.1 ± 0.12
[4] | 84.2 ± 3.2 | 70.6 ± 3 | 59.1 ± 5.1 | 39.6 ± 1.6 | 95.4 ± 3 | 98.7 ± 1.4 | 99.6 ± 2.4 | 98.1 ± 1.3 | 96 ± 3.2
[5] | 84.3 ± 6.3 | 52.5 ± 5.2 | 26 ± 5.3 | 21.1 ± 2.3 | 82.8 ± 10 | 89.9 ± 9.1 | 96.6 ± 2.6 | 100 ± 1.2 | 98.5 ± 2.5
[6] | 101 ± 8 | 92.8 ± 13 | 70.3 ± 9.2 | 53.3 ± 3.7 | 102 ± 9.3 | 107 ± 9.3 | 107 ± 9 | 108 ± 9.3 | 108 ± 9.2
[7] | 94.2 ± 3 | 97.4 ± 3.8 | 84.6 ± 2.5 | 66.6 ± 9.3 | 100 ± 1.9 | 100 ± 2.4 | 100 ± 3.6 | 101 ± 2.7 | 103 ± 1.8
[8] | 95 ± 1.1 | 85.4 ± 2.5 | 67.3 ± 2.6 | 51.9 ± 3.1 | 98.1 ± 1.2 | 98.44 ± 0.83 | 99.3 ± 2.1 | 99.5 ± 1.1 | 98.93 ± 0.56
[9] | 95.7 ± 1 | 86.4 ± 5 | 76.9 ± 6.4 | 60.3 ± 8.9 | 98.1 ± 1.6 | 99.1 ± 1.1 | 100 ± 0.42 | 100.3 ± 0.22 | 100.1 ± 0.28
[10] | 73.3 ± 10 | 67.8 ± 7.8 | 54.4 ± 3.4 | 39.5 ± 0.84 | 86 ± 12 | 80 ± 12 | 91.3 ± 11 | 89.3 ± 5.6 | 96.6 ± 4.4
[11] | 99.47 ± 0.24 | 97.79 ± 0.78 | 89.9 ± 1.9 | 79.6 ± 7.6 | 99.79 ± 0.14 | 99.921 ± 0.051 | 99.933 ± 0.042 | 99.898 ± 0.054 | 99.921 ± 0.051
[12] | 93.1 ± 6.2 | 93.3 ± 8.1 | 88.9 ± 7 | 81.4 ± 8.7 | 95.6 ± 11 | 101 ± 8.3 | 99.7 ± 1.9 | 100 ± 6 | 98.2 ± 3.8
[13] | 70.9 ± 13 | 33.6 ± 5.4 | 24.4 ± 2.2 | 22.9 ± 3.1 | 78.1 ± 3.8 | 82.9 ± 8.3 | 97.9 ± 8.7 | 96.2 ± 11 | 100 ± 2.5
[14] | 58.7 ± 3.8 | 35.8 ± 2.1 | 36.3 ± 3.1 | 25.3 ± 3.6 | 79.5 ± 4.7 | 95.1 ± 4.7 | 94.8 ± 5.9 | 96.2 ± 5.2 | 98.5 ± 7
[15] | 96.77 ± 0.61 | 88.2 ± 3.7 | 71 ± 3.9 | 61.1 ± 3.6 | 99.56 ± 0.35 | 99.8 ± 0.07 | 99.9 ± 0.1 | 99.943 ± 0.053 | 99.978 ± 0.014
[16] | 93.6 ± 1 | 83.1 ± 1.4 | 48.8 ± 3.2 | 33.3 ± 1.8 | 95.8 ± 1.8 | 100 ± 1.4 | 99.8 ± 1.8 | 97.8 ± 3.8 | 98.4 ± 1.6
[17] | 94.1 ± 6.1 | 79.9 ± 12 | 53.5 ± 17 | 38.4 ± 8.9 | 99.14 ± 0.98 | 98.7 ± 2.5 | 97.9 ± 4.1 | 99.1 ± 1.7 | 95.4 ± 7.5
[18] | 93 ± 9 | 49.6 ± 14 | 25.1 ± 6.7 | 26.3 ± 8.2 | 98.2 ± 1.8 | 99.11 ± 0.49 | 99.03 ± 0.93 | 99.4 ± 1 | 98.1 ± 3
